These results are taken from patent US4225526A, “8-[(4-Aminophenyl)sulfonyl]amino-2-naphthalenyl phosphorodiamidate” (Morton-Norwich Products, Inc., priority 1979, dated 1980).

The target of the assay is T1, urease of intact Proteus mirabilis cells (Proteus mirabilis, UniProt P17086).
T1 construct: using intact Proteus mirabilis cells as the source of urease; endogenous in cells; host or cells: intact Proteus mirabilis cells
The assay can be described thus: anti-urease potency using intact Proteus mirabilis cells. The following applies: 40 minutes preincubation, pH 8.0; ammonia formed in five minutes after addition of urea; read-out: concentration evincing 50% inhibition of the urease of intact Proteus mirabilis cells. Type of assay: cell-based. The method, then:
The anti-urease potency of the compound of this invention was determined using intact Proteus mirabilis cells as the source of urease. Compounds were preincubated with Proteus mirabilis cells suspended in a saline solution (0.1 molar) buffered with 0.1 molar tris(hydroxymethyl)aminomethane (pH 8.0). After 40 minutes preincubation, the remaining urease activity was determined by collecting the ammonia formed in five minutes after the addition of the substrate, urea. Ammonia assays were carried out according to the procedure of Seligson and Seligson [J. Lab. Clin. Med. 38, 324-330 (1951)]. Percent inhibition was calculated by comparing the amount of ammonia generated by cells preincubated with 8-[(4-aminophenyl)sulfonyl]amino-2-naphthalenyl phosphorodiamidate with the controls in which preincubation was carried out in the absence of compound.

T1 sequence (P17088 whole entry): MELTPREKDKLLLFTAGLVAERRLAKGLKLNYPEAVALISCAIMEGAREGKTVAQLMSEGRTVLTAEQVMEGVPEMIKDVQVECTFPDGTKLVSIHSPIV
T1 sequence (P17087 whole entry, further chain): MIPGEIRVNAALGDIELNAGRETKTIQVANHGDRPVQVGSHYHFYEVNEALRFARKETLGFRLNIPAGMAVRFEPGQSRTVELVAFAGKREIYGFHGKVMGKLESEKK
T1 sequence (P17086 whole entry): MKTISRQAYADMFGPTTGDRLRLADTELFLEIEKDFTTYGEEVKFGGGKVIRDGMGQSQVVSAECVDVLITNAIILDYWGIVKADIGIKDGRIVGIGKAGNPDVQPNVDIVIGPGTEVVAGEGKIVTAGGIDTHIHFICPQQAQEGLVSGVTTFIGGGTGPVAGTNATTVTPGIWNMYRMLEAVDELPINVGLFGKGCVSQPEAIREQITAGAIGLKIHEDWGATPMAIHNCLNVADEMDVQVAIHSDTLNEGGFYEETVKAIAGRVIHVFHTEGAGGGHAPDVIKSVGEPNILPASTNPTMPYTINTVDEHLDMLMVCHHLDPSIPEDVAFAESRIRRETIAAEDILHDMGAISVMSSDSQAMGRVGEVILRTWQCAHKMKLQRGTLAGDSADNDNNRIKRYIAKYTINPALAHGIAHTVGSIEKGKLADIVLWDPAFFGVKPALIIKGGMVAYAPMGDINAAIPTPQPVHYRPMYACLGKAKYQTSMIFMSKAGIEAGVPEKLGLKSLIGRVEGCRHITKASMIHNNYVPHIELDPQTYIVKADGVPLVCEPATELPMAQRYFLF

Turning to `Nc1ccc(S(=O)(=O)Nc2cccc3ccc(OP(N)(N)=O)cc23)cc1` [this compound, 8-[(4-aminophenyl)sulfonyl]amino-2-naphthalenyl phosphorodiamidate], the IC50 came to 400 nM.
